# Assay results reported in ChEMBL document CHEMBL1201862, “PubChem BioAssay data set” (2004).
# Activity calls are given as the source filed them.
# Legend:
# [1] = target: Heat shock protein HSP 90-alpha (Homo sapiens, UniProt P07900); experiment: Luminescence-based dose response biochemical high throughput screening assay for inhibitors of the Heat Shock Protein 90 (HSP90). [Related pubchem assays: 1831 (Summary AID.), 1846 (Confirmation screen.), 1789 (Primary screen.)]
# [2] = target: Potassium channel subfamily K member 9 (Homo sapiens, UniProt Q9NPC2); experiment: KCNK9 flux blockade, concentration-response – cell-based, FluxOR thallium flux, selectivity assay for TASK1 inhibitor project, SAR follow-up (AID 652211); type: functional;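 also: potency is for inhibitors of the channel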
# Chain of Potassium channel subfamily K member 9 (Q9NPC2 whole entry): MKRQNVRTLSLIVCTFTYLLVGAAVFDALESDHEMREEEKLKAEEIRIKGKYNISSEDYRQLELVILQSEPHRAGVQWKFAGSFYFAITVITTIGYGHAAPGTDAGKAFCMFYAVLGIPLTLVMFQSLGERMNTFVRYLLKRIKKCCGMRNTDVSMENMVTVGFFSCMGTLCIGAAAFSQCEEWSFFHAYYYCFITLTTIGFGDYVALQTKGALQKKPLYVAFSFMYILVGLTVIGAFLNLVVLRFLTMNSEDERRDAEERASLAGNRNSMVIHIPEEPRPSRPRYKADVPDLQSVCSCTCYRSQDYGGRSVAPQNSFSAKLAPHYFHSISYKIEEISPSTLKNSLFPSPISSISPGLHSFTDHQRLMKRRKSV
# [3] = target: Potassium channel subfamily K member 3 (Homo sapiens, UniProt O14649); experiment: inhibition of human KCNK3 channel flux – CHO cells, FluxOR thallium flux, SAR follow-up (AID 652212); type: functional
# Chain of Potassium channel subfamily K member 3 (O14649 whole entry): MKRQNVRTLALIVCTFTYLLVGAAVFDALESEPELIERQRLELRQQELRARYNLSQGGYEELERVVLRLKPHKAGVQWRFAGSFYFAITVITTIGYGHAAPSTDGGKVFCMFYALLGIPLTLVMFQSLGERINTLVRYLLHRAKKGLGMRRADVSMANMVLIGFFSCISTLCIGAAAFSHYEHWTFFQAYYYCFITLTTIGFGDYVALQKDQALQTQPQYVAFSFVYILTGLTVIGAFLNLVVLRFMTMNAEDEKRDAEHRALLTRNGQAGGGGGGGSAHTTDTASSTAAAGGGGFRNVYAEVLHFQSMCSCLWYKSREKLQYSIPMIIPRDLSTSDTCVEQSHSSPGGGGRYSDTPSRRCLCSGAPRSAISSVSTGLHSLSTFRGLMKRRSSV
# Protein skinhead-1 = target: T1, Protein skinhead-1 (Caenorhabditis elegans, UniProt P34707); type: functional
# T1 sequence (P34707 whole entry): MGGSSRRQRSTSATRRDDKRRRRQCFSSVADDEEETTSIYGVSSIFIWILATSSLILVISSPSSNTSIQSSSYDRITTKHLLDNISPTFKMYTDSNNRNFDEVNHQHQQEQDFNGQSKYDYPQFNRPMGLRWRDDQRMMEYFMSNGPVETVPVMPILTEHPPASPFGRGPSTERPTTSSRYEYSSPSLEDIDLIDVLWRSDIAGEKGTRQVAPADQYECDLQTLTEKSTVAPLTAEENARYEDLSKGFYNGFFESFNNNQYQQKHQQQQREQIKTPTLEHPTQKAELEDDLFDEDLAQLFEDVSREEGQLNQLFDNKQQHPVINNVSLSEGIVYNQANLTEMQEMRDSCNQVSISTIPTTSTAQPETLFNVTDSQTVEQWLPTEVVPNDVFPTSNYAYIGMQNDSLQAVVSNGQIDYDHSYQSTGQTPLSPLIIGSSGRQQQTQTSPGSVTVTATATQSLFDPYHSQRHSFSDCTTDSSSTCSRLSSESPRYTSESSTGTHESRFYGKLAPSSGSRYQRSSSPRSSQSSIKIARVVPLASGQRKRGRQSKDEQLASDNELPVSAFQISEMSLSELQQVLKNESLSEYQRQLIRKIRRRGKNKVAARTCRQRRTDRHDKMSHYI
# Prothrombin = Prothrombin (Homo sapiens, UniProt P00734); experiment: Thrombin 1536 HTS Dose Response Confirmation. [Related pubchem assays: 1046 (Thrombin 1536 HTS; hits were confirmed in this assay)]; type: functional
# [4] = HEK293 Cytotoxicity Assay Measured in Cell-Based System Using Plate Reader - 7071-01_Inhibitor_Dose_CherryPick_Activity_Set2.; type: functional
# HEK293 = experiment: viability loss in HEK293T cells – cell-based, ATP luminescence, cherry-pick samples, cytotoxicity control, dose response (AID 687005); type: functional; conditions: Homo sapiens;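 also: cells exposed to compound for 48 hours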
# Cytochrome P450 2C19 = Cytochrome P450 2C19 (Homo sapiens, UniProt P33261); experiment: qHTS Assay for Inhibitors and Substrates of Cytochrome P450 2C19. [Related pubchem assays: 410 ]; type: ADME; conditions: read-out: Potency
# Chain of Cytochrome P450 2C19 (P33261 whole entry): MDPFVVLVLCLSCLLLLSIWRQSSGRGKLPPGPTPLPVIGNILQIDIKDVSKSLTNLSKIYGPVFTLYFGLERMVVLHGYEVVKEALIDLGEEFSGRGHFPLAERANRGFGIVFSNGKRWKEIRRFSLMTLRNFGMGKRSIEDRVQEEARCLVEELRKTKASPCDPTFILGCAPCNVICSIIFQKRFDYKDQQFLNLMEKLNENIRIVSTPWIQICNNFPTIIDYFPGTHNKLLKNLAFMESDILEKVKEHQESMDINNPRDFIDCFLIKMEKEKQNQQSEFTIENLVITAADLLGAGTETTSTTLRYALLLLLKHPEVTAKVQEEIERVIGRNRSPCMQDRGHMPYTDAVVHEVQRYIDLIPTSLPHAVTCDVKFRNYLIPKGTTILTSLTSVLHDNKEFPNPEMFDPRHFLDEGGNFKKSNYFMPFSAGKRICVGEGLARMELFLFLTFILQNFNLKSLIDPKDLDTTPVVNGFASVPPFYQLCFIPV
# Cytochrome P450 3A4 = Cytochrome P450 3A4 (Homo sapiens, UniProt P08684); conditions: Potency;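 also: confirmatory qHTS run detecting inhibitors and substrates of CYP3A4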
# Chain of Cytochrome P450 3A4 (P08684 whole entry): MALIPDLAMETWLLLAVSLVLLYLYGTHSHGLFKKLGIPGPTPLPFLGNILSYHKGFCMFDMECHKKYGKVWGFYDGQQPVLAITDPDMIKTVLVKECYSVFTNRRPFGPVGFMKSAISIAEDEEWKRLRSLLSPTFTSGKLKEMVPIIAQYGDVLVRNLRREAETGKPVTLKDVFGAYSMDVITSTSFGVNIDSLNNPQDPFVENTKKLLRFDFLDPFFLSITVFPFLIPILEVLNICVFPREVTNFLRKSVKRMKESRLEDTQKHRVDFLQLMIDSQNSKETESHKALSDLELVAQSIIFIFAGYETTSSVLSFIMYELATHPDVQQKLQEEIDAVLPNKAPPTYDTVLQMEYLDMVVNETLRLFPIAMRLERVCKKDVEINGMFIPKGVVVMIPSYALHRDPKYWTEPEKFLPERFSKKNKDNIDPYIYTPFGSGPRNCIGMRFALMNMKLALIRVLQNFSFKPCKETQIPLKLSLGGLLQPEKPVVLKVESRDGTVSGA
# [5] = glucagon-like peptide-1 release potency in STC-1, concentration-response, half-maximal inhibitory concentration in the STC-1 line (AID 1117345); type: functional, cell-based
# [6] = Potency on glucagon-like peptide 1 release, dose-response in NCI-H716 cell line, half maximal inhibitory concentration (AID 1117344); type: functional, cell-based
# [7] = Trypanosoma cruzi growth suppression in host cells – NIH3T3 host cells, beta-gal luminescence, confirmation (AID 2044); type: functional, cell-based;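 also: intracellular parasites grown in NIH/3T3 mouse fibroblasts as host cells; luminescent beta-galactosidase reporter signal from transgenic T. cruzi replicating inside host cells; inhibitors lower the luminescence signal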
# [8] = NIH3T3 cell viability loss – ATP luminescence, mouse fibroblasts, counter-screen, dose response (AID 2010); type: functional, cell-based;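 also: cells exposed to compound for about 90 hours before reading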
# [9] = blockers of HIV-1 envelope-mediated cell-cell fusion – cherry-pick, dose response (AID 652057); type: functional, cell-based
# [10] = off-target signal loss in HeLa-CEM21 co-culture – HeLa F-luc CTL cells, cherry-picked, counter-screen for HIV-1 Env fusion inhibitor project, dose response (AID 652040); type: functional, cell-based;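 also: potency for signal decrease marking cytotoxic or nonspecific inhibition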
# [11] = target: COUP transcription factor 2 (Homo sapiens, UniProt P24468); experiment: Luminescence-based cell-based high throughput dose response assay to identify inhibitors of COUP-TFII (NR2F2).; type: functional;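 also: HEK293 cells transiently cotransfected with COUP-TFII expression vector and reporter; luciferase reporter luminescence driven by COUP-TFII from the pX2-168 reporter plasmid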
# Chain of COUP transcription factor 2 (P24468 whole entry, the tested form may be a part): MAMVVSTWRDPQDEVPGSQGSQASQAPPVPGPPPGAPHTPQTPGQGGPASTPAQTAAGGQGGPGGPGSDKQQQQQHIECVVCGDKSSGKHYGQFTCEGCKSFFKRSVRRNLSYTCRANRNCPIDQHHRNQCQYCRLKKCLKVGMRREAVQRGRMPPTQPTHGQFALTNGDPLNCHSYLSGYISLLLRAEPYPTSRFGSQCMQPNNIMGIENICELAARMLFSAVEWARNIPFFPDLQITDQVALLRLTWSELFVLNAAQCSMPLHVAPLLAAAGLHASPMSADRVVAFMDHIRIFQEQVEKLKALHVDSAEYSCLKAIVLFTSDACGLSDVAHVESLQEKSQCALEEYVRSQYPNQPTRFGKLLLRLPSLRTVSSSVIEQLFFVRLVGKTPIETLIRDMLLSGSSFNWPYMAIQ
# [12] = viability loss in CEM21 cells – cell-based, CellTiter-Glo luminescence, cherry-picked, cytotoxicity control for viral fusion inhibitor project, dose response (AID 652042); type: functional;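 also: potency for signal decrease meaning cytotoxicity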
# [13] = HIV-1 AD8 envelope cell-cell fusion blockers – cherry-pick, dose response (AID 652062); type: functional, cell-based;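 also: luciferase signal from cell-cell fusion driven by HIV-1 clade B AD8 Env; potency is for inhibitors of fusion seen as a drop in luminescence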
# [14] = blockers of HIV-1 ZM109 envelope-driven cell-cell fusion – HeLa effector, CEM target cells, luciferase, cherry-pick, dose response (AID 652058); type: functional, cell-based;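 also: luciferase signal from HIV-1 Env mediated cell-cell fusion of effector and target cells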
# Transthyretin = Transthyretin (Homo sapiens, UniProt P02766); experiment: Luminescence-based cell-based high throughput dose response assay to identify activators of Transthyretin (TTR) transcription.; type: functional
# [15] = target: T2, Zinc finger protein mex-5 (Caenorhabditis elegans, UniProt Q9XUB2); experiment: potency of MEX-5 RNA-binding blockers – biochemical, C. elegans, fluorescence polarization, dose response (AID 1960)
# T2 sequence (Q9XUB2 whole entry): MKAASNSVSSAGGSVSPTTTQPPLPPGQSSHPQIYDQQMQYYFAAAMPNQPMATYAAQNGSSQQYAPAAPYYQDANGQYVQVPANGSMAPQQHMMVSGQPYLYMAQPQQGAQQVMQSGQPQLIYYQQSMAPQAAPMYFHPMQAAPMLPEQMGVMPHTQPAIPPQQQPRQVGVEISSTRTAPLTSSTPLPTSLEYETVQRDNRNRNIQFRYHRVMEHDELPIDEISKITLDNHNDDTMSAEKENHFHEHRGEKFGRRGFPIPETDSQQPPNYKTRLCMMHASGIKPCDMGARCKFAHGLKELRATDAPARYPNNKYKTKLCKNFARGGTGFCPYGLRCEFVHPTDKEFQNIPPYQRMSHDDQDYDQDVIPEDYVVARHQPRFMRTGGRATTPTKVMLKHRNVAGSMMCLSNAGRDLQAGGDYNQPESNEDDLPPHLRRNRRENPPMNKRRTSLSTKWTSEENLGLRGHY
# [16] = target: T3, Acyl-homoserine lactone acylase PvdQ (Pseudomonas aeruginosa (strain LESB58), UniProt Q9I194); experiment: PvdQ acylase enzyme activity blockers – biochemical, fluorescence, plate reader and imaging, cherry-picks, dose response (AID 493231)
# T3 sequence (Q9I194 whole entry): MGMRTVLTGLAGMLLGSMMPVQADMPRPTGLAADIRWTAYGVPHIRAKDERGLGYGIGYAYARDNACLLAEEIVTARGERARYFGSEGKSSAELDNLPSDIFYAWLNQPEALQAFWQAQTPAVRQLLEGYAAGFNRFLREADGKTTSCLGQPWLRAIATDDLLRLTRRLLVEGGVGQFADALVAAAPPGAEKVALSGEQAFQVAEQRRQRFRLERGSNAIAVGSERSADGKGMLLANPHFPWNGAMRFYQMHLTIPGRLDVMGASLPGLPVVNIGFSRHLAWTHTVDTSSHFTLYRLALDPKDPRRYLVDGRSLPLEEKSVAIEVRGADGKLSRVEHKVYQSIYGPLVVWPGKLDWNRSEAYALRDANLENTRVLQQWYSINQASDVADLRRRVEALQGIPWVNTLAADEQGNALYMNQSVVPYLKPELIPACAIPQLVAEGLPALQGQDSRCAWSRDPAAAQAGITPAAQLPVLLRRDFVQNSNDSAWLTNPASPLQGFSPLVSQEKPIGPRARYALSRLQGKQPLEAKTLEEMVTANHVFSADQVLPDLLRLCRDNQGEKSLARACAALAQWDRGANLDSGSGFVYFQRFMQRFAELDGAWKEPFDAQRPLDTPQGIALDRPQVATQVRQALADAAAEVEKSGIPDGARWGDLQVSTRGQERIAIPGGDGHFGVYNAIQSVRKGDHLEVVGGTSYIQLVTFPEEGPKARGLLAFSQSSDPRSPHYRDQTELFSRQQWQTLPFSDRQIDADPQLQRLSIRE
# [17] = target: T4, RNA-binding protein pos-1 (Caenorhabditis elegans, UniProt G5EF15); experiment: disruptors of C. elegans POS-1 RNA interaction – biochemical, fluorescence polarization, dose response (AID 1964);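 also: purified POS-1 fused to maltose binding protein made in E. coli; potency of compounds blocking POS-1 binding to fluorescent RNA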
# T4 sequence (G5EF15 whole entry): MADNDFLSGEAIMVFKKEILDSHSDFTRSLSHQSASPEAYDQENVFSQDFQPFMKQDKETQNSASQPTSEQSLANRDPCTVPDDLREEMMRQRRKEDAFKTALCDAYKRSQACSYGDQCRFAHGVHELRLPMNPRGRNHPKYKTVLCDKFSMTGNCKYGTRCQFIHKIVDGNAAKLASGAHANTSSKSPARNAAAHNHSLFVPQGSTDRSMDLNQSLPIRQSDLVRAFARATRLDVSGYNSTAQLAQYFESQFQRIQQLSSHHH
# [18] = reduced cellular PGC1a acetyl-lysine signal – cell-based, cherry-picked samples, dose response (AID 720514); type: functional;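 also: potency may reflect raised or lowered acetylation signal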
# [19] = luciferase reporter signal suppression in cells – H4 neuroglioma cells, luminescence, dose response (AID 1990); type: functional, cell-based
# [20] = alpha-synuclein stem-loop luciferase translation blockers – H4 neuroglioma cells, luminescence, confirmation (AID 1988); type: functional, cell-based
# [21] = Luminescence Cell-Based Dose Response HTS to Identify Inhibitors of 5'UTR Stem-Loop Driven Prion Protein mRNA Translation in H4 Neuroglioblastoma Cells. [Related pubchem assays: 1827 (Project Summary), 1813 (Primary HTS)]; type: functional
# [22] = OVCAR8 cell viability loss – plate reader, dry powder samples, PAX8 project, dose response (AID 743197); type: functional, cell-based; conditions: OVCAR-8
# [23] = OVCAR-3 cell viability loss – plate reader, dry powder samples, PAX8 inhibitor project, dose response (AID 743044); type: functional, cell-based
# Paired box protein Pax-8 = Paired box protein Pax-8 (Homo sapiens, UniProt Q06710); experiment: PAX8 transcriptional activity inhibition in RMG-I – RMG-I cells, luciferase, cherry-pick, dose response (AID 687027); type: functional, cell-based;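 also: luciferase reporter driven by Pax8 target thyroperoxidase promoter measured by SteadyGlo luminescence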
# Chain of Paired box protein Pax-8 (Q06710 whole entry): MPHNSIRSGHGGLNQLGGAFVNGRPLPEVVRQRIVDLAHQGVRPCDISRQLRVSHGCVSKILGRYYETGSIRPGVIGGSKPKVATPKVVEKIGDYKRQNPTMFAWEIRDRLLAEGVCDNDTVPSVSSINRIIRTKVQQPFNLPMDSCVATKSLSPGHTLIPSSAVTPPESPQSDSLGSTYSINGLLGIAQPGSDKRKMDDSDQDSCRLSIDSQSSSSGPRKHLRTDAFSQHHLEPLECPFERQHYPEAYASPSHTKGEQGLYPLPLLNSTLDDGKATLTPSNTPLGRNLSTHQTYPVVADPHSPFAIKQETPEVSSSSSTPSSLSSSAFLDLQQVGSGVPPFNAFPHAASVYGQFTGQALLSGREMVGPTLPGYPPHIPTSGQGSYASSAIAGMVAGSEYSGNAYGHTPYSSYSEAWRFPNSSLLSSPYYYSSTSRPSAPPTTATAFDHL
# Cytochrome P450 2C9 = Cytochrome P450 2C9 (Homo sapiens, UniProt P11712); conditions: Potency
# Chain of Cytochrome P450 2C9 (P11712 whole entry): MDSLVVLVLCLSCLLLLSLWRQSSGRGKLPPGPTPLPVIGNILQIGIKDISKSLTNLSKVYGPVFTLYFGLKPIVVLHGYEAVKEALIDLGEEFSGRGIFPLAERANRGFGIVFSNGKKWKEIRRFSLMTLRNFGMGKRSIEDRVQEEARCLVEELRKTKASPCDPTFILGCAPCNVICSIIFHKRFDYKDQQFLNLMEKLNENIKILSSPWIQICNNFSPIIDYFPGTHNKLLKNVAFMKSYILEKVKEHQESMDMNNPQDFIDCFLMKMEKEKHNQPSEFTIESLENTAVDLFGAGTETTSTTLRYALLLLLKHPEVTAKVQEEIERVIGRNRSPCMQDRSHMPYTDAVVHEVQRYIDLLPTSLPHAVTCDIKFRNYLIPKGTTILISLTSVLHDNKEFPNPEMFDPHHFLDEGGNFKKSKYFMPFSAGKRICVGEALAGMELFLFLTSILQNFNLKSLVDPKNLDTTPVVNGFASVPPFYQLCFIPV
# Kallikrein-7 = Kallikrein-7 (Homo sapiens, UniProt P49862); experiment: Fluorescence Intensity-based biochemical primary high throughput dose response assay to identify activators of kallikrein-7 (K7) zymogen.
# Chain of Kallikrein-7 (P49862 whole entry): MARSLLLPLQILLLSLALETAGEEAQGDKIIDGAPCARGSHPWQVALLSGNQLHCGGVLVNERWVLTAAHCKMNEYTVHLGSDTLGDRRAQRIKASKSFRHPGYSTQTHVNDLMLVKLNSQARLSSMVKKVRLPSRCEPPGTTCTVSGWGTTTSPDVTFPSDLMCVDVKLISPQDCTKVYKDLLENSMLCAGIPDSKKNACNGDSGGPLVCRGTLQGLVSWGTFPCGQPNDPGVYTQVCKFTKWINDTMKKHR
structure (smiles),measurement,setting,value
COc1ccc(-c2cn3c(C)c(C(=O)Nc4cccc(C)n4)sc3n2)cc1,IC50,[1],0.327 µM (active)
COc1ccccc1C(=O)Nc1cc(NC(=O)c2cccc(C)c2)ccc1F,IC50,[2],6.31 µM (active)
same,IC50,[3],0.159 µM (active)
CC(C)OCCCn1c(=S)[nH]c2cc3c(cc2c1=O)OCO3,IC50,Protein skinhead-1,> 100 µM (inactive)
same,IC50,Prothrombin,> 50 µM (not active)
CC(NC(=O)COc1ccccc1-c1ccccc1)c1ccccc1 (configuration not stated),AC50,[4],35.9 µM (active)
same,AC50,HEK293,35.9 µM (active)
COC(=O)C/C=C/C(C)C(OCc1cccc(Br)c1)C(C)C(OC)C1CCCCC1 (configuration not stated),AC50,Cytochrome P450 2C19,5.01 µM (inconclusive)
same,AC50,Cytochrome P450 3A4,3.98 µM (inconclusive)
O=c1[nH]sc2cc(Cl)ccc12 [TICLATONE],IC50,[5],> 40 µM (inactive)
same,IC50,[6],> 40 µM (inactive)
CCOc1ccc(CNCCc2ccc3c(c2)OCO3)cc1,EC50,[7],< 0.1 µM (active)
same,EC50,[8],> 60 µM (not active)
same,EC50,cells,0.496 µM (active)
CCOc1ccccc1NC(=O)c1cccc(NC(=O)c2ccccc2OC)c1,IC50,[2],1.18 µM (active)
same,IC50,[3],0.007 µM (active)
Cc1cccc(Nc2nc(-c3c(C)nc4ccccn34)cs2)c1,AC50,[9],6.19 µM (active)
same,AC50,[10],2.7 µM (active)
same,IC50,[11],8.41 µM (active)
same,AC50,[12],29.6 µM (active)
same,AC50,[13],7.63 µM (active)
same,AC50,[14],7.64 µM (active)
Cc1ccccc1Cn1cc(COC(=O)N(C)Cc2ccccc2)nn1,EC50,Transthyretin,> 167 µM (inactive)
CCOC(=O)c1ccc(-c2ccc(C=O)o2)cc1,EC50,[15],> 300 µM (not active)
same,AC50,[16],9.42 µM (active)
same,EC50,[17],43.6 µM (active)
same,IC50,[1],10.3 µM (not active)
Cc1c(C)n(CCN(C)C)c2ccc(C(=O)OCCN(C)C)cc12 [AMINDOCATE],IC50,[5],1.2 µM (active)
same,IC50,[6],> 40 µM (inactive)
Cc1ccc(CNC(=O)CCC2CCCN(Cc3c(C)nn(C(C)C)c3C)C2)o1 (configuration not stated),EC50,[7],< 0.1 µM (active)
same,EC50,[8],> 60 µM (not active)
same,EC50,cells,0.011 µM (active)
N#Cc1ccc(-c2ccc([C@@H]3[C@H]4CNC[C@@H]3N4Cc3ccc4c(c3)OCO4)cc2)cc1,AC50,[18],16.9 µM (active)
O=C(C[C@H]1CC[C@H]2[C@@H](COC[C@H](O)CN2Cc2cccc(Cl)c2)O1)Nc1nccs1,AC50,[4],16.7 µM (active)
same,AC50,HEK293,16.7 µM (active)
Cc1ccc(CNC(=O)Cc2ccc(-c3ccccc3)cc2)cc1,EC50,[19],> 120 µM (not active)
same,EC50,Transthyretin,> 167 µM (inactive)
same,EC50,[20],6.89 µM (active)
same,EC50,[21],10.4 µM (active)
C[C@@H]1CN([C@H](C)CO)C(=O)c2cc(NC(=O)CCC(F)(F)F)ccc2O[C@@H](C)CCCCO[C@@H]1CN(C)Cc1ccc(C(F)(F)F)cc1,AC50,[22],45.3 µM (active)
same,AC50,[23],26.5 µM (active)
same,AC50,Paired box protein Pax-8,8.65 µM (active)
Cc1ccc(/C=C/C2=CC3(C)CC2(C)C(c2ccc(C)cc2)CC3=O)cc1 (configuration not stated),AC50,Cytochrome P450 2C9,3.98 µM (inconclusive)
same,AC50,Cytochrome P450 2C19,0.631 µM (inconclusive)
O=C(c1cccs1)C1CCN(c2ncnc3sccc23)CC1,IC50,[11],4.18 µM (active)
COc1ccccc1C1C=C(c2ccccc2)Nc2nnnn21 (configuration not stated),EC50,Kallikrein-7,12.1 µM (inactive)
CC(=O)N1c2ccccc2N2C(c3c(C)c(C)cc(C)c3C)=NON12,IC50,Prothrombin,3.37 µM (active)
